We go through twelve compounds from patent publication US20240409585A1, “MACROCYCLIC IMMUNOMODULATORS” (priority 2021, published 2024).

Numbered stars: 1 amine (or outer) side, 2 acyl side, 3 side chain; on linkers, the order of the positions; unused ones are H or OH. Bridge positions count the residues as written; N and C are the ends. Square brackets hold non-standard residues; d marks the D form. Peptide text beside a SMILES is read from it. * marks the point of attachment. X51 = O=C([C@H](Cc1cccc(-c2cccc(S(=O)(=O)N3CCOCC3)c2)c1)N[*:1])[*:2]; Bip(4'-COOH) = N[C@@H](Cc1ccc(-c2ccc(C(=O)O)cc2)cc1)C(=O)O; Bip(4'-NHAc) = CC(=O)Nc1ccc(-c2ccc(C[C@H](N)C(=O)O)cc2)cc1; Phe(3-CF3) = N[C@@H](Cc1cccc(C(F)(F)F)c1)C(=O)O; Ala(morpholin-4-yl) = N[C@@H](CN1CCOCC1)C(=O)O; Phe(4-CONH2) = NC(=O)c1ccc(C[C@H](N)C(=O)O)cc1; Phe(4-COOH) = N[C@@H](Cc1ccc(C(=O)O)cc1)C(=O)O; Bip = N[C@@H](Cc1ccc(-c2ccccc2)cc1)C(=O)O; Abu(3R-NH2) = C[C@@H](N)[C@H](N)C(=O)O; Phe(3-Me) = Cc1cccc(C[C@H](N)C(=O)O)c1; Val(3-OH) = CC(C)(O)[C@H](N)C(=O)O; X11 = CC(N)[C@H](N[*:1])C(=O)[*:2]; hArg = N=C(N)NCCCC[C@H](N)C(=O)O; hPhe = N[C@@H](CCc1ccccc1)C(=O)O; Cha = N[C@@H](CC1CCCCC1)C(=O)O; hSer = N[C@@H](CCO)C(=O)O; Carboxymethyl = O=C(O)C*; NMeA = CN[C@@H](C)C(=O)O; Orn = NCCC[C@H](N)C(=O)O; Dab = NCC[C@H](N)C(=O)O

In the first test the target is T1, Alexa fluor-647 labeled human PD-L1-Ig binding to Jurkat cell line over-expressing human PD-1 (Homo sapiens, UniProt Q15116).
T1 construct: expressed in transfected cells; host or cells: Jurkat
T1 sequence (Q15116 25-288): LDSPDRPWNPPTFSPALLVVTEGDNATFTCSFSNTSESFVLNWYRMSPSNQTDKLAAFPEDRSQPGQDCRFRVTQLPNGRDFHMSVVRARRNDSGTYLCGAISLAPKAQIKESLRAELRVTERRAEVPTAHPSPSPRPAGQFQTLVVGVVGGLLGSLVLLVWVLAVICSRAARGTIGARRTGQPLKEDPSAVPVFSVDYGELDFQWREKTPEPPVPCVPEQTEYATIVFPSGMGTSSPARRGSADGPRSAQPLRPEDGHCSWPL
The test is described as follows: Jurkat-PD-1 Cell Binding High-Content Screening Assay (CBA): Method 3 (Alexa fluor-647 labeled PD-L1-Ig). The settings on record: Jurkat-PD-1 cells, Alexa fluor-647 labeled PD-L1-Ig 177 nM; head μM; read-out: CBA Method 3 μM. In a few lines: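 Jurkat cells over-expressing human PD-1 in RPMI/10% FCS were preincubated 2 h at 37 °C with compound, then exposed 1 h to Alexa fluor-647 labeled human PD-L1-Ig (177 nM final). Cells fixed in 4% paraformaldehyde with Hoechst 33342 and binding quantified by high-content imaging.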
Turning to `Cc1cccc(C[C@@H]2NC(=O)[C@H](CC(=O)O)NC(=O)[C@H](Cc3ccc(C(=O)O)cc3)NC(=O)[C@H](CN3CCOCC3)NC(=O)CSC[C@@H](C(=O)N[C@@H](CCN)C(N)=O)NC(=O)[C@H](CCC(=O)O)NC(=O)[C@H](C(C)C)NC(=O)[C@H](CC3CCCCC3)NC(=O)[C@H](CCN)NC(=O)[C@@H](CC(C)C)NC(=O)[C@H](C)N(C)C(=O)[C@H](Cc3ccc(C(=O)O)cc3)NC(=O)[C@H](Cc3ccc(-c4ccccc4)cc3)NC(=O)[C@H](Cc3ccc(C(=O)O)cc3)NC2=O)c1` [Example 5259] ({CH2CO}-[Ala(morpholin-4-yl)][Phe(4-COOH)]D[Phe(3-Me)][Phe(4-COOH)][Bip][Phe(4-COOH)][NMeA][dL][Dab][Cha]VEC[Dab]-NH2; thioether N-14), the IC50 stood at 0.01 µM.

For the compound `Cc1cccc(C[C@@H]2NC(=O)[C@H](CC(=O)O)NC(=O)[C@H](Cc3ccc(OCC(=O)O)cc3)NC(=O)[C@H](CN3CCOCC3)NC(=O)CSC[C@@H](C(=O)N[C@@H](CCN)C(N)=O)NC(=O)[C@H](CCCN)NC(=O)[C@H](C(C)C)NC(=O)[C@H](CC3CCCCC3)NC(=O)[C@H](CCN)NC(=O)[C@@H](CC(C)C)NC(=O)[C@H](C)N(C)C(=O)[C@H](CCC(N)=O)NC(=O)[C@H](Cc3ccc(-c4ccccc4)cc3)NC(=O)[C@H](Cc3cccc(-c4cccc(S(=O)(=O)N5CCOCC5)c4)c3)NC2=O)c1` [Example 5106] ({CH2CO}-[Ala(morpholin-4-yl)]Y(Carboxymethyl)D[Phe(3-Me)][X51][Bip]Q[NMeA][dL][Dab][Cha]V[Orn]C[Dab]-NH2; thioether N-14), the IC50 came out at 0.06 µM.

With `CC(=O)Nc1ccc(-c2ccc(C[C@@H]3NC(=O)[C@H](Cc4cccc(C)c4)NC(=O)[C@H](CC(=O)O)NC(=O)[C@H](Cc4ccc(C(=O)O)cc4)NC(=O)[C@H](CC4CCCCC4)NC(=O)CSC[C@@H](C(=O)N[C@@H](CCN)C(N)=O)NC(=O)[C@H](CCC(=O)O)NC(=O)[C@H](C(C)C)NC(=O)[C@H](CC4CCCCC4)NC(=O)[C@H](CCN)NC(=O)[C@@H](CC(C)C)NC(=O)[C@H](C)N(C)C(=O)[C@H](Cc4ccc(C(=O)O)cc4)NC(=O)[C@H](Cc4ccc(-c5ccccc5)cc4)NC3=O)cc2)cc1` [Example 5199] ({CH2CO}-[Cha][Phe(4-COOH)]D[Phe(3-Me)][Bip(4'-NHAc)][Bip][Phe(4-COOH)][NMeA][dL][Dab][Cha]VEC[Dab]-NH2; thioether N-14), the IC50 is 0.01 µM.

For the compound `Cc1cccc(C[C@@H]2NC(=O)[C@H](CC(=O)O)NC(=O)[C@H](Cc3ccc(C(=O)O)cc3)NC(=O)[C@H](CC3CCCCC3)NC(=O)CSC[C@@H](C(=O)N[C@@H](CCN)C(N)=O)NC(=O)[C@H](CCC(=O)O)NC(=O)[C@H](C(C)C)NC(=O)[C@H](CC3CCCCC3)NC(=O)[C@H](CCN)NC(=O)[C@@H](CC(C)C)NC(=O)[C@H](C)N(C)C(=O)[C@H](Cc3ccc(C(=O)O)cc3)NC(=O)[C@H](Cc3ccc(-c4ccccc4)cc3)NC(=O)[C@H](Cc3ccc(-c4ccc(C(=O)O)cc4)cc3)NC2=O)c1` [Example 5198] ({CH2CO}-[Cha][Phe(4-COOH)]D[Phe(3-Me)][Bip(4'-COOH)][Bip][Phe(4-COOH)][NMeA][dL][Dab][Cha]VEC[Dab]-NH2; thioether N-14), the IC50 came to 0.01 µM.

For `CC(=O)Nc1ccc(-c2ccc(C[C@@H]3NC(=O)[C@H](Cc4cccc(C(F)(F)F)c4)NC(=O)[C@H](CC(=O)O)NC(=O)[C@H](Cc4ccc(C(=O)O)cc4)NC(=O)[C@H]([C@@H](C)N)NC(=O)CSC[C@@H](C(=O)N[C@@H](CCN)C(N)=O)NC(=O)[C@H](CCC(=O)O)NC(=O)[C@H](C(C)C)NC(=O)[C@H](CC4CCCCC4)NC(=O)[C@H](CCN)NC(=O)[C@@H](CC(C)C)NC(=O)[C@H](C)N(C)C(=O)[C@H](Cc4ccc(C(=O)O)cc4)NC(=O)[C@H](Cc4ccc(-c5ccccc5)cc4)NC3=O)cc2)cc1` [Example 5160] ({CH2CO}-[Abu(3R-NH2)][Phe(4-COOH)]D[Phe(3-CF3)][Bip(4'-NHAc)][Bip][Phe(4-COOH)][NMeA][dL][Dab][Cha]VEC[Dab]-NH2; thioether N-14), the IC50 was found to be 0.04 µM.

On to `Cc1cccc(C[C@@H]2NC(=O)[C@H](CC(=O)O)NC(=O)[C@H](Cc3ccc(OCC(=O)O)cc3)NC(=O)[C@H](CC3CCCCC3)NC(=O)CSC[C@@H](C(=O)N[C@@H](CCN)C(N)=O)NC(=O)[C@H](CCCN)NC(=O)[C@H](C(C)C)NC(=O)[C@H](CC3CCCCC3)NC(=O)[C@H](CCN)NC(=O)[C@@H](CC(C)C)NC(=O)[C@H](C)N(C)C(=O)[C@H](CCC(N)=O)NC(=O)[C@H](Cc3ccc(-c4ccccc4)cc3)NC(=O)[C@H](CCc3ccccc3)NC2=O)c1` [Example 5218] ({CH2CO}-[Cha]Y(Carboxymethyl)D[Phe(3-Me)][hPhe][Bip]Q[NMeA][dL][Dab][Cha]V[Orn]C[Dab]-NH2; thioether N-14), for which the IC50 is 0.02 µM.

Consider `Cc1cccc(C[C@@H]2NC(=O)[C@H](CC(=O)O)NC(=O)[C@H](Cc3ccc(-c4ccc(C(=O)O)cc4)cc3)NC(=O)[C@H]([C@@H](C)O)NC(=O)CSC[C@@H](C(=O)N[C@@H](CCN)C(N)=O)NC(=O)[C@H](Cc3cnc[nH]3)NC(=O)[C@H](C(C)(C)O)NC(=O)[C@H](CC3CCCCC3)NC(=O)[C@H](CCN)NC(=O)[C@@H](CC(C)C)NC(=O)[C@H](C)N(C)C(=O)[C@H](Cc3ccc(C(=O)O)cc3)NC(=O)[C@H](Cc3ccc(-c4ccccc4)cc3)NC(=O)[C@H](Cc3ccc(-c4ccc(C(=O)O)cc4)cc3)NC2=O)c1` [Example 5131] ({CH2CO}-T[Bip(4'-COOH)]D[Phe(3-Me)][Bip(4'-COOH)][Bip][Phe(4-COOH)][NMeA][dL][Dab][Cha][Val(3-OH)]HC[Dab]-NH2; thioether N-14), for which the IC50 amounted to 0.19 µM.

On to `Cc1cccc(C[C@@H]2NC(=O)[C@H](CC(=O)O)NC(=O)[C@H](Cc3ccc(O)cc3)NC(=O)[C@H](CN3CCOCC3)NC(=O)CSC[C@@H](C(=O)N[C@@H](CCN)C(N)=O)NC(=O)[C@H](CCC(=O)O)NC(=O)[C@H](CCO)NC(=O)[C@H](CC3CCCCC3)NC(=O)[C@H](CCN)NC(=O)[C@@H](CC(C)C)NC(=O)[C@H](C)N(C)C(=O)[C@H](CCC(N)=O)NC(=O)[C@H](Cc3ccc(-c4ccccc4)cc3)NC(=O)[C@H](Cc3ccc(OCC(=O)O)cc3)NC2=O)c1` [Example 5261] ({CH2CO}-[Ala(morpholin-4-yl)]YD[Phe(3-Me)]Y(Carboxymethyl)[Bip]Q[NMeA][dL][Dab][Cha][hSer]EC[Dab]-NH2; thioether N-14), for which the IC50 turned out to be 0.06 µM.

Regarding `CC(C)C[C@H]1NC(=O)[C@H](C)N(C)C(=O)[C@H](Cc2ccc(C(N)=O)cc2)NC(=O)[C@H](Cc2ccc(-c3ccccc3)cc2)NC(=O)[C@H](Cc2ccc(OCC(=O)O)cc2)NC(=O)[C@H](Cc2cccc(C(F)(F)F)c2)NC(=O)[C@H](CC(=O)O)NC(=O)[C@H](Cc2ccc(C(=O)O)cc2)NC(=O)[C@H](C(C)N)NC(=O)CSC[C@@H](C(=O)N[C@@H](CCN)C(N)=O)NC(=O)[C@H](CO)NC(=O)[C@H](C(C)(C)O)NC(=O)[C@H](CC2CCCCC2)NC(=O)[C@H](CCN)NC1=O` (stereo partly drawn) [Example 5147] ({CH2CO}-[X11][Phe(4-COOH)]D[Phe(3-CF3)]Y(Carboxymethyl)[Bip][Phe(4-CONH2)][NMeA][dL][Dab][Cha][Val(3-OH)]SC[Dab]-NH2; thioether N-14), the IC50 amounted to 0.01 µM.

The same test, now with this note: Jurkat-PD-1 cells, Alexa fluor-647 labeled PD-L1-Ig 177 nM; nM; read-out: CBA Method 3.
Regarding `Cc1cccc(C[C@@H]2NC(=O)[C@H](CC(=O)O)NC(=O)[C@H](Cc3ccc(OCC(=O)O)cc3)NC(=O)[C@H](CCCCNC(=N)N)NC(=O)CSC[C@@H](C(=O)N[C@@H](CCN)C(N)=O)NC(=O)[C@H](CCCN)NC(=O)[C@H](C(C)C)NC(=O)[C@H](CC3CCCCC3)NC(=O)[C@H](CCN)NC(=O)[C@@H](CC(C)C)NC(=O)[C@H](C)N(C)C(=O)[C@H](CCC(N)=O)NC(=O)[C@H](Cc3ccc(-c4ccccc4)cc3)NC(=O)[C@H](Cc3ccc(C(=O)O)cc3)NC2=O)c1` [Example 5184] ({CH2CO}-[hArg]Y(Carboxymethyl)D[Phe(3-Me)][Phe(4-COOH)][Bip]Q[NMeA][dL][Dab][Cha]V[Orn]C[Dab]-NH2; thioether N-14), the IC50 is 0.0011 µM.

In the case of `Cc1cccc(C[C@@H]2NC(=O)[C@H](CC(=O)O)NC(=O)[C@H](Cc3ccc(OCC(=O)O)cc3)NC(=O)[C@H](CCCNC(=N)N)NC(=O)CSC[C@@H](C(=O)N[C@@H](CCN)C(N)=O)NC(=O)[C@H](CCCN)NC(=O)[C@H](C(C)C)NC(=O)[C@H](CC3CCCCC3)NC(=O)[C@H](CCN)NC(=O)[C@@H](CC(C)C)NC(=O)[C@H](C)N(C)C(=O)[C@H](CCC(N)=O)NC(=O)[C@H](Cc3ccc(-c4ccccc4)cc3)NC(=O)[C@H](Cc3ccc(C(=O)O)cc3)NC2=O)c1` [Example 5183] ({CH2CO}-RY(Carboxymethyl)D[Phe(3-Me)][Phe(4-COOH)][Bip]Q[NMeA][dL][Dab][Cha]V[Orn]C[Dab]-NH2; thioether N-14), the IC50 turned out to be 0.0023 µM.

On to `CC(=O)Nc1ccc(-c2ccc(C[C@@H]3NC(=O)[C@H](Cc4cccc(C(F)(F)F)c4)NC(=O)[C@H](CC(=O)O)NC(=O)[C@H](Cc4ccc(C(=O)O)cc4)NC(=O)[C@H]([C@@H](C)N)NC(=O)CSC[C@@H](C(=O)N[C@@H](CCN)C(N)=O)NC(=O)[C@H](CCC(=O)O)NC(=O)[C@H](C(C)C)NC(=O)[C@H](CC4CCCCC4)NC(=O)[C@H](CCN)NC(=O)[C@@H](CC(C)C)NC(=O)[C@H](C)N(C)C(=O)[C@H](Cc4ccc(C(=O)O)cc4)NC(=O)[C@H](Cc4ccc(-c5ccccc5)cc4)NC3=O)cc2)cc1` [Example 5154] ({CH2CO}-[Abu(3R-NH2)][Phe(4-COOH)]D[Phe(3-CF3)][Bip(4'-NHAc)][Bip][Phe(4-COOH)][NMeA][dL][Dab][Cha]VEC[Dab]-NH2; thioether N-14), for which the IC50 was found to be 0.0063 µM.
